How the values were obtained:
[1] = tested on: E. coli genome; experiment: Tn-seq of CRISPRt transposon insertion sites (specificity, orientation); format: cell-based, E. coli K-12; settings: insertions ~49 bp downstream of protospacer
Description: FIGS. 1a-e illustrate a mobilizable, selectable, dual-plasmid system for CRISPR-guided transposition. 1a. Schematic of a targeted transposition gene knockout (CRISPRt) and gene overexpression (CRISPRtOE) system optimized for functional genomics. 1b. Schematic of mechanism of Vibrio cholera Type I-F CRISPR-associated transposon (Vc CAST) system. 1c. Schematic of strain construction using the CRISPRt targeted transposition system. Plasmids have pir-dependent origins of replication preventing replication in the bacterial recipient. […] Inside the recipient cell, the transposon (flanked in yellow) is inserted onto the chromosome at a site determined by the sequence of the guide RNA. […] Specificity of CRISPRt disruption of gfp and lacZ in E. coli measured by Tnseq. Mapping of location of transposon insertion sites to the E. coli genome after CRISPRt targeted transposition with gfp1 guide (226,671 reads) or LZ1 guide (216,801 reads). […]
Tnseq analysis of CRISPRt/CRISPRtOE constructs. […] PCR products were spin-purified (eluted in 15 μl) and quantified fluorometrically. […] Briefly, PCR products were amplified with nested primers containing i5 and i7 indexes and Illumina® TruSeq™ adapters followed by bead cleanup, quantification, pooling and running on a NovaSeq X Plus (150 bp paired end reads) or MiSeq (250 bp paired end reads). […]

[2] = tested on: lacZ; experiment: CRISPRt disruption of lacZ, blue-white screening of transconjugants; format: cell-based, E. coli K-12; settings: lacZ targeted
Procedure: Transfer of the CRISPRt/CRISPRtOE system to the bacterial chromosome. CRISPRt and CRISPRtOE strains were constructed by triparental mating of two E. coli donor strains-one with the pCRISPRt-H plasmid encoding Cas678-TniQ-TnsABC and another with the pCRISPRt-T or pCtOE plasmid containing the transposon with the guide RNA and antibiotic resistance- and a recipient strain (Table 1). All conjugations and selection post-conjugation were carried out at 30° C. regardless of the normal incubation temperature for the organism. Isolated donor and recipient strains were struck out on plates with the appropriate media and antibiotic (if relevant) concentrations. Colonies were resuspended from plates into the growth medium used for the recipient to a density of OD600=9. […]
For lacZ targeted CRISPRt, the color of 80 individual colonies was determined by patching on LB agar plates containing X-gal (20 μg/ml). […]
To test the precision of CRISPRt, both endogenous (lacZ) and heterologous (gfp) reporter genes were targeted for disruption in E. coli K-12 (data not shown). […] Next, targeting on the genome scale was determined by sequencing genomic DNA at the Tn6677 transposon junction (Tn-seq) using Illumina®-based Next Generation Sequencing (NGS). […]

[3] = tested on: E. coli whole genome CRISPRtOE library (promoter H)
Procedure: Whole genome experiment growth. The E. coli CRISPRtOE whole genome libraries with no promoter (sJMP10704) or promoter H (sJMP10705) were revived by dilution of 100 μl frozen stock (OD600=15) into 100 ml LB (starting OD600=0.015) and incubation in 500 ml flasks shaking at 37° C. until OD600=0.2 (˜2.5 h) (timepoint=TO). […] (T1). These cultures were serially diluted back to OD600=0.01 into fresh tubes containing the same media and incubated again with shaking for 18 h at 37° C. (T2) for a total of ˜10-15 doublings. Cells were pelleted from 15 ml of culture in duplicate at time point TO and 1 ml of culture at timepoints T1 and T2 and stored at −20° C.
A custom Python script (counting_spacers.py) was used to determine the number of times each spacer appeared in the filtered alignment file. […] Pairwise comparison of spacer counts in DMSO and TMP treatment samples was performed using edgeR^70 and a custom Rscript (comparison_of_spacer_counts_edgeR.R). The results were plotted using a custom Rscripts (plotting_scatter_plot.R, barplot_with_points.R, scatter_plot_commands.R). […]
To test the ability of CRISPRtOE to identify antibiotic-relevant gene phenotypes at the genome-scale, the libraries were grown in the presence or absence of a sub-lethal concentration of TMP and relative strain abundance was measured.

[4] = tested on: E. coli folA CRISPRtOE isolates vs parent strains; settings: TMP 0.04-20 μg/ml, MHB, 20 h
Procedure: MIC assays. The minimal inhibitory concentration (MIC) of E. coli folA and murA CRISPRtOE isolates was determined by either growth in a microtiter plate or by disc diffusion assays, respectively. For the broth microdilution assay, CRISPRtOE isolates and WT controls were grown to saturation from an isolated colony and serially diluted to OD600=0.003) and the CRISPRtOE library was diluted from a glycerol stock to the same density. […] E. coli folA CRISPRtOE isolates, the folA CRISPRtOE library, a lacZ CRISPRtOE control, and WT cultures and the media containing antibiotic were mixed in equal proportions and incubated 20 h shaking at 37° C. prior to cell density (OD600) determination in a microplate reader. For the MIC strip assays, E. coli folA or murA CRISPRtOE isolates, a lacZ CRISPRtOE control, and WT cultures were diluted to OD600=0.3 and 300 μl was spread on a 100 mm MH agar plate and dried in a laminar flow cabinet. When dry, MIC strips (Liofilchem, Italy; 920371 (TMP 0.002-32 mg/L) and 920791(FOS 0.064-1024 mg/L)) were applied to the plate and 10 μl serially diluted antibiotics were applied to the discs. Plates were incubated at 37° C. for 18 h. Broth microdilution assays were repeated 3 times and MIC test strip assays twice.

[5] = tested on: E. coli folA CRISPRtOE strains vs lacZ controls
Procedure: (§1) CRISPRtOE library growth experiments. Competition experiment growth. The E. coli CRISPRtOE murA and folA libraries were mixed in equal volume with the LP-lacZ library: 50 μl frozen stock (OD600=10) of each library (murA+LP-lacZ and folA+LP-lacZ) into 100 ml LB (starting OD600=0.01) in a 500 ml flask and incubated shaking at 37° C. until OD600=0.2 (˜2.5 h) (timepoint=T0) to revive the cells. […] (T1). These cultures were serially diluted back to OD600=0.01 into fresh tubes containing the same media and incubated again with shaking for 18 h at 37° C. (T2) for a total of ˜10-15 doublings. Cells were pelleted from 15 ml of culture in duplicate at each time point T0 and 1 ml of culture at timepoints T1 and T2 and stored at −20° C.
(§2) To test for overexpression phenotypes, the folA or murA library was mixed 50:50 with the lacZ control library and cells were grown in the presence/absence of TMP or FOS, respectively.

[6] = tested on: E. coli murA CRISPRtOE strains vs lacZ controls; experiment: CRISPRtOE pooled library competitive growth assay with fosfomycin; format: cell-based, E. coli K-12; settings: fosfomycin 0.4 μg/ml, ~10-15 doublings
Procedure: as §1, §2

Molecule: lacZ: gRNA spacer LZ1 (Petassi, PMID: 33271061), SEQ ID NO: 16, targeting lacZ (guide CAACTTAATCGCCTTGCAGCACATCCCCCTTT; chemistry not given here)
- insertions in R-L orientation [1]: 74.1%
- transconjugants showing the expected disruption phenotype [2]: 100%

Molecule: COc1cc(Cc2cnc(N)nc2N)cc(OC)c1OC [TMP, trimethoprim]
- enrichment of folA-associated spacers [3]: > 1000 fold
- shift in MIC between parent strains and folA CRISPRtOE isolates [4]: 15 to 30 fold
- increase in abundance of folA OE strains relative to lacZ controls [5]: 22 fold

Molecule: C[C@@H]1O[C@@H]1P(=O)(O)O [FOS, fosfomycin]
- increase in abundance of murA OE strains relative to lacZ controls [6]: 52 fold
